In patent US6759238B1, “Multidrug resistance associated proteins and uses thereof” (priority 1999, dated 2004):

Columns and labels:
CEM-r1 cells [1] = experiment: Uptake and metabolism of [3H]bispom-PMEA; settings: for Metabolite Levels, Cells / Metabolite Levels, Medium: CEM-r1, 1 μM [3H]bispom-PMEA, 15 minutes
Experimental: (§1) Therefore, the metabolism of [^3H]bispom-PMEA (15), a lipophilic prodrug of PMEA, was analyzed in the two cell lines in order to further examine the mechanism of resistance in the mutant cell line.

CEM-SS cells [2] = experiment: Uptake and metabolism of [3H]bispom-PMEA; settings: for Metabolite Levels, Cells / Metabolite Levels, Medium: CEM-SS, 1 μM [3H]bispom-PMEA, 15 minutes
Experimental: as §1

CEM-r1 cells [3] = experiment: Cytotoxicity assay (growth inhibition, Coulter counter); settings: for Relative Resistance: CEM-r1 vs CEM-SS (Table 3); for Cross-resistance of CEM-r1 cells (in words): relative sensitivity of wild-type and CEM-r1 cells
Experimental: Selection for PMEA resistance was carried out by exposing CEM-SS cells in culture to increasing concentrations of PMEA, over several months.
The IC50 values were obtained after 2 days of culture. Each result is the mean of one representative experiment performed in duplicate. The cultures with the purine nucleosides adenosine, 2′-deoxyadenosine, and arabinosyladenine contained 5 μM deoxycoformycin to inhibit adenosine deaminase activity.
(§2) All assays were performed in 24-well tissue culture plates (Costar, Cambridge, Ma.). […] At the end of the incubation, the cell concentrations, sizes, and volumes were counted in a Coulter counter (Coulter Electronics, Hialeah. Fla.).

CEM-SS cells [4] = experiment: as above; settings: CEM-SS
Experimental: […] Each result is the mean of one representative experiment performed in duplicate. The cultures with the purine nucleosides adenosine, 2′-deoxyadenosine, and arabinosyladenine contained 5 μM deoxycoformycin to inhibit adenosine deaminase activity.
as §2

CaCo-2 cells = experiment: PMEA transport in transwell culture; assay type: in vitro ADME; settings: CaCo-2 transwell
From the text: A transwell culture which is permissive for cellular polarization may be used to measure the compartment to compartment flux of putative substrates. […] In addition, it is possible that expression of MPR4 depending if it is basal or apical (and this may vary by organ cultured) may determine if PMEA or PMEA-like drugs are absorbed.

CEM-SS cells [5] = experiment: Efflux of PMEA from bispom-PMEA loaded cells; assay type: in vitro ADME, human; settings: CEM-SS, 3 min incubation, efflux at 15 minutes
Experimental: (§3) To examine whether the resistant cells could be altered in their capacity to retain the phosphonate analog, the clearance of [^3H]PMEA and its metabolites from CEM-SS and CME-r1 cells was determined. […] Aliquots of cells and medium sampled at different intervals over a period of 2 hr were analyzed by HPLC, and the results are shown in FIG. 4. […] Some of this clearance was probably due to the anabolism of PMEA, because the PMEAp- and PMEApp-associated radioactivity continued to accumulate within the cells, but the majority of the radioactivity was excreted into the medium as PMEA. In contrast to the results with parental cells, loss of intracellular PMEA-associated radioactivity in the resistant CEM-r1 cells was extremely rapid and the majority of the radioactivity within the cells was excreted into the medium within 20-30 minutes of incubation (FIG. 4).
(§4) Both CEM-SS and CME-r1 cells were incubated for 3 minutes with increasing concentrations (range 0.07 mM to 8.80 mM) of the prodrug for the selecting agent, Bis(POM)PMEA. After incubation, the cells were pelleted and reconstituted in drug-free medium, and the amount of PMEA present in the medium and intracellularly was measured 15 minutes after resuspension. The amount of PMEA effluxing out into the medium at 15 minutes increased initially with increasing concentration (FIG. 7A).
(§5) Referring to Table 6 in greater detail, efflux kinetics were studied. Transport analysis of PMEA was conducted as previously described^48. […] The cells were then washed free of radioactivity and then incubated in drug-free medium in the presence of sodium azide and 2-deoxy-D-glucose. At various time periods, the amount of intracellular AZTMP was measured. As reported in Table 6, depletion of ATP led to an inhibition of AZTMP efflux (i.e. a significant accumulation of AZTMP in the CEM-r1 cells but not in the CEM-SS cells).
(§6) At the indicated times, extracts were prepared from the cells and the medium, and the prodrug and its various nucleoside/nucleotide metabolites were analyzed by HPLC as described previously (24).

CEM-r1 cells [6] = experiment: Efflux of PMEA from bispom-PMEA loaded cells; assay type: in vitro ADME, human; settings: CEM-r1, 3 min incubation, efflux at 15 minutes
Experimental: as §3, §4
CEM-r1 cells were incubated with 0.07-8.8 mM Bis(POM)PMEA for 3 minutes. The cells were pelleted and reconstituted in either drug-free medium or in medium containing 0.5 mM PMEA, and the amount of PMEA present in the medium and intracellularly was measured 15 minutes after resuspension.
as §5, §6

CEM-r1 cells [7] = experiment: Phosphorylation of AZT; assay type: in vitro ADME, human; settings: CEM-r1, 10 μM AZT
Experimental: (§7) The appearance of the phosphorylated metabolites into the medium was also determined in both the cell lines. AZTDP and AZTTP were not detected in the medium of either CEM-SS or CEM-r1 cells. However, the amount of AZTMP accumulated in the media was approximately 3-fold higher in CEM-r1 cells than in CEM-SS cells.
(§8) The cartridges were conditioned with 10% MeOH Ammonium Phosphate Buffer (5 mM, pH 4.0). The sample was loaded onto the column. […] AZTDP and AZTTP were eluted with 10% MeOH Ammonium Phosphate Buffer (700 mm, pH 4.6).

CEM-SS cells [8] = experiment: Phosphorylation of AZT; assay type: in vitro ADME, human; settings: 10 μM AZT
Experimental: as §7, §8

CEM-r1 cells [9] = experiment: Efflux of [3H]-AZT and its metabolites; assay type: in vitro ADME, human
Experimental: Cells were incubated for 60 minutes with [^3H]-AZT (10 μM) after which they were washed free of radioactivity, resuspended in drug-free medium and the intracellular and the extracellular concentration of [^3H]-AZT were measured. […] At least 80% of the AZTMP present intracellularly in CEM-r1 cells was excreted into the medium in 10 minutes (FIG. 6A).
as §5
The suspension was centrifuged at 3,300 rpm for 7 minutes. All but 1 ml of the supernatant medium containing the free drug was aspirated. […] The cell pellet was then washed with ice-cold medium and resuspended at the same concentration in drug-free medium and maintained at 37° C. […] An aliquot of the top layer (cell free media) was analyzed for the quantitation of AZT and its metabolites.

[10] = CEM-r1, 2 days of culture (Table 3)

CC(C)(C)C(=O)OCOP(=O)([O-])COCCn1cnc2c(N)ncnc21.[Na+] [Monopom-PMEA]
Metabolite Levels, Cells (CEM-r1 cells [1]): 4.1 µM | Metabolite Levels, Medium (CEM-r1 cells [1]): 166 nM | Metabolite Levels, Cells (CEM-SS cells [2]): 4.6 µM | Metabolite Levels, Medium (CEM-SS cells [2]): 185 nM

Nc1ncnc2c1ncn2[C@@H]1O[C@H](CO)[C@@H](O)[C@@H]1O [Arabinosyladenine]
Relative Resistance (CEM-r1 cells [3]): ˜1 | IC50 (CEM-r1 cells [3]; Homo sapiens, 48 h): 0.9 µM | IC50 (CEM-SS cells [4]; Homo sapiens, 48 h): 0.7 µM

Nc1nc(F)nc2c1ncn2[C@@H]1O[C@H](CO)[C@@H](O)[C@@H]1O [2-Fluoroarabinosyladenine]
IC50 (CEM-r1 cells [3]; [10]): 4.4 µM | Relative Resistance (CEM-r1 cells [3]): 3.7 | Cross-resistance of CEM-r1 cells (in words) (CEM-r1 cells [3]): partially resistant | IC50 (CEM-SS cells [4]; 2 days of culture (Table 3)): 1.2 µM

COc1cc2c(c(OC)c1OC)-c1ccc(OC)c(=O)cc1[C@@H](NC(C)=O)CC2 [Colchicine]
Cross-resistance of CEM-r1 cells (in words) (CEM-r1 cells [3]): not resistant

prostaglandin A
Effect on apical to basal transport of PMEA (CaCo-2 cells): specifically inhibits | Effect on basal to apical flux of PMEA (CaCo-2 cells): no effect

Nc1ncnc2c1ncn2C[C@@H](CO)OCP(=O)(O)O [HPMPA]
IC50 (CEM-r1 cells [3]; [10]): 1100 µM | Relative Resistance (CEM-r1 cells [3]): 12 | Cross-resistance of CEM-r1 cells (in words) (CEM-r1 cells [3]): partial cross-resistance | IC50 (CEM-SS cells [4]; 2 days of culture (Table 3)): 92 µM

CC(C)(C)C(=O)OCOP(=O)(COCCn1cnc2c(N)ncnc21)OCOC(=O)C(C)(C)C [Bispom-PMEA, bis(pivaloyloxymethyl)-9-(2-phosphonylmethoxyethyl)adenine]
IC50 (CEM-r1 cells [3]; [10]): 32 µM | Relative Resistance (CEM-r1 cells [3]): 123 | Cross-resistance of CEM-r1 cells (in words) (CEM-r1 cells [3]): highly cross-resistant | IC50 (CEM-SS cells [4]; 2 days of culture (Table 3)): 0.26 µM | Initial uptake, difference between the two cell lines (CEM-r1 cells [1]; 1 μM [3H]bispom-PMEA, early time course (120 sec), CEM-SS vs CEM-r1): no significant difference | Metabolite Levels, Cells (CEM-r1 cells [1]): 0.04 µM | Metabolite Levels, Medium (CEM-r1 cells [1]): 429 nM | Metabolite Levels, Cells (CEM-SS cells [2]): 0.03 µM | Metabolite Levels, Medium (CEM-SS cells [2]): 490 nM | Radioactivity present in the cells detected as the intact pro-drug (CEM-SS cells [2]; after incubation with [3H]bispom-PMEA, similar in parental and resistant cells): ~2% | Prodrug concentration above which the amount of PMEA effluxed did not increase significantly (CEM-SS cells [5]): higher than 2.2 mM | Prodrug concentration above which the amount of PMEA effluxed did not increase significantly (CEM-r1 cells [6]): > 4.4 mM

Nc1ncnc2c1ncn2[C@@H]1O[C@H](CO)[C@@H](O)[C@H]1O [Adenosine]
Relative Resistance (CEM-r1 cells [3]): 5.4 | IC50 (CEM-r1 cells [3]; Homo sapiens, 48 h): 205 µM | Cross-resistance of CEM-r1 cells (in words) (CEM-r1 cells [3]): partially resistant | IC50 (CEM-SS cells [4]; Homo sapiens, 48 h): 38 µM

Cc1cn([C@H]2C[C@H](N=[N+]=[N-])[C@@H](CO[P@](=O)(O)O[P@](=O)(O)OP(=O)(O)O)O2)c(=O)[nH]c1=O [AZTTP]
Appearance in the medium (CEM-r1 cells [7]): not detected | Intracellular Concentration (CEM-r1 cells [7]; 4 hours): 0.36 µM | Intracellular Concentration (CEM-r1 cells [7]; 8 hours): 0.34 µM | Intracellular Concentration (CEM-r1 cells [7]; 24 hours): 0.43 µM | Appearance in the medium (CEM-SS cells [8]): not detected | Intracellular Concentration (CEM-SS cells [8]; 4 hours): 1.3 µM | Intracellular Concentration (CEM-SS cells [8]; 8 hours): 1.5 µM | Intracellular Concentration (CEM-SS cells [8]; 24 hours): 1.3 µM | Change of intracellular levels over the time period studied (CEM-r1 cells [9]): did not change significantly | Share of total cellular anabolites (CEM-r1 cells [9]; human, 10 μM): 1%
